Results taken from patent US20050009840A1 (SUGEN, INC., priority 2003, published 2005).
pIC50: −log10 of the molar value.

target: T1, Met kinase domain (GST fusion protein) (Homo sapiens, UniProt P08581); experiment: Met transphosphorylation assay (ELISA, poly(glu-tyr) substrate); format: biochemical; conditions: Met IC50;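 also: Cell-free ELISA with plate-bound poly(Glu:Tyr 4:1) phosphorylated by GST-fused Met kinase domain plus ATP and Mn2+, phosphotyrosine detected by anti-phosphotyrosine antibody with HRP and ABTS read-out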
T1 construct: Purified GST fusion protein containing the Met kinase domain
T1 sequence (P08581 1078-1345 limits assumed): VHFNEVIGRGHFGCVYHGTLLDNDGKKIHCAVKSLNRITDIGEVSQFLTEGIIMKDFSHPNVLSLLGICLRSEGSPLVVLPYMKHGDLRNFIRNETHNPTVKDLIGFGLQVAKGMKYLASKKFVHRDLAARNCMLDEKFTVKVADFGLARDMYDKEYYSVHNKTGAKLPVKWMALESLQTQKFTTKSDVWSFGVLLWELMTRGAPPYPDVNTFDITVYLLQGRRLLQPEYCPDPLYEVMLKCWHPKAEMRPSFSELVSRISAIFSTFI
Experimental: General procedure is as follows: a compound is introduced to cells expressing the test kinase, either naturally or recombinantly, for a selected period of time after which, if the test kinase is a receptor, a ligand known to activate the receptor is added. The cells are lysed and the lysate is transferred to the wells of an ELISA plate previously coated with a specific antibody recognizing the substrate of the enzymatic phosphorylation reaction. Non-substrate components of the cell lysate are washed away and the amount of phosphorylation on the substrate is detected with an antibody specifically recognizing phosphotyrosine compared with control cells that were not contacted with a test compound.
Met Transphosphorylation Assay
This assay is used to measure phosphotyrosine levels on a poly(glutamic acid:tyrosine, 4:1) substrate as a means for identifying agonists/antagonists of met transphosphorylation of the substrate.
PBS, Gibco Catalog # 450-1300EB • 4. 50 mM HEPES • 5. […] Purified GST fusion protein containing the Met kinase domain, SUGEN, Inc. • 7. TBST Buffer. • 8. 10% aqueous (MilliQue H2O) DMSO. • 9. […] 2× Kinase Dilution Buffer: for 100 mL, mix 10 mL 1M HEPESat pH 7.5 with 0.4 mL 5% BSA/PBS, 0.2 mL 0.1 M sodium orthovanadate and 1 mL 5M sodium chloride in 88.4 mL dH2O. • 11. 4× ATP Reaction Mixture: for 10 mL, mix 0.4 mL 1 M manganese chloride and 0.02 mL 0.1 M ATP in 9.56 mL dH2O. • 12. 4× Negative Controls Mixture: for 10 mL, mix 0.4 mL 1 M manganese chloride in 9.6 mL dH2O. • 13. […] 500 mM EDTA. • 15. Antibody Dilution Buffer: for 100 mL, mix 10 mL 5% BSA/PBS, 0.5 mL 5% Carnation® Instant Milk in PBS and 0.1 mL 0.1 M sodium orthovanadate in 88.4 mL TBST. • 16. Rabbit polyclonal antophosphotyrosine antibody, SUGEN, Inc. • 17. Goat anti-rabbit horseradish peroxidase conjugated antibody, Biosource, Inc. • 18. ABTS Solution: for 1 L, mix 19.21 g citric acid, 35.49 g Na2HPO4 and 500 mg ABTS with sufficient dH2O to make 1 L. • 19. ABTS/H2O2: mix 15 mL ABST solution with 2μL H2O2 five minutes before use. • 20. 0.2 M HCl Procedure: • 1. Coat ELISA plates with 2 μg Poly(Glu-Tyr) in 100 μL PBS, hold-overnight at 4° C. • 2. Block plate with 150 μL of 5% BSA/PBS for 60 min. • 3. Wash plate twice with PBS then once with 50 mM Hepes buffer pH 7.4. • 4. Add 50 μl of the diluted kinase to all wells. (Purified kinase is diluted with Kinase Dilution Buffer. Final concentration should be 10 ng/well.) • 5. Add 25 μL of the test compound (in 4% DMSO) or DMSO alone (4% in dH2O) for controls to plate. • 6. Incubate the kinase/compound mixture for 15 minutes. • 7. Add 25 μL of 40 mM MnCl2 to the negative control wells. • 8. Add 25 μL ATP/MnCl2 mixture to the all other wells (except the negative controls). Incubate for 5 min. • 9. Add 25 μL 500 mM EDTA to stop reaction. • 10. Wash plate 3× with TBST. • 11. Add 100 μL rabbit polyclonal anti-Ptyr diluted 1:10,000 in Antibody Dilution Buffer to each well. Incubate, with shaking, at room temperature for one hour. • 12. Wash plate 3× with TBST. • 13. […] Add 100 μL per well and incubate at room temperature, with shaking, for one hour. • 14. Wash plate 1× with PBS. • 15. Add 100 μl of ABTS/H2O2 solution to each well. • 16. If necessary, stop the development reaction with the addition of 100 μl of 0.2M HCl per well. • 17.

**Q.** N#Cc1ccccc1COc1cc(-c2ccccc2)cnc1N [Example I-97, 2-(2-Amino-5-phenyl-pyridin-3-yloxymethyl)-benzonitrile] was tested. Which pIC50 did it give?
**A.** Its pIC50 is 4.91.

same assay, conditions: read-out: Met IC50

**Q.** How did the pIC50 turn out when C[C@@H]1CN(Cc2c[nH]c3ccc(-c4cnc(N)c(OCc5c(F)ccc(F)c5Cl)c4)cc23)C[C@H](C)O1 [Example I-71, 3-(2-Chloro-3,6-difluoro-benzyloxy)-5-[3-(2,6-dimethyl-morpholin-4-ylmethyl)-1H-indol-5-yl]-pyridin-2-ylamine] was run?
**A.** The pIC50 was 5.57.

**Q.** How did the pIC50 turn out when CC(=O)N[C@H]1CCN(Cc2c[nH]c3ccc(-c4cnc(N)c(OCc5c(F)ccc(F)c5Cl)c4)cc23)C1 [Example I-72, N-(1-{5-[6-Amino-5-(2-chloro-3,6-difluoro-benzyloxy)-pyridin-3-yl]-1H-indol-3-ylmethyl}-(3S)-pyrrolidin-3-yl)-acetamide] was run?
**A.** Its pIC50 is 6.02.

**Q.** With Nc1ncc(-c2ccc3[nH]cc(CN4CCCCC4)c3c2)cc1OCc1c(F)ccc(F)c1Cl [Example I-73, 3-(2-Chloro-3,6-difluoro-benzyloxy)-5-(3-piperidin-1-ylmethyl-1H-indol-5-yl)-pyridin-2-ylamine] as the compound, how does the pIC50 read?
**A.** The pIC50 was 6.13.

**Q.** With Nc1ncc(-c2ccc3[nH]cc(CN4CCOCC4)c3c2)cc1OCc1c(F)ccc(F)c1Cl [Example I-74, 3-(2-Chloro-3,6-difluoro-benzyloxy)-5-(3-morpholin-4-ylmethyl-1H-indol-5-yl)-pyridin-2-ylamine] as the compound, how does the pIC50 read?
**A.** The pIC50 was 5.85.

**Q.** How did the pIC50 turn out when Nc1ncc(-c2ccc3[nH]cc(CN4CCCC4)c3c2)cc1OCc1c(F)ccc(F)c1Cl [Example I-75, 3-(2-Chloro-3,6-difluoro-benzyloxy)-5-(3-pyrrolidin-1-ylmethyl-1H-indol-5-yl)-pyridin-2-ylamine] was run?
**A.** Its pIC50 is 6.15.

**Q.** CCOC(=O)c1cc2cc(-c3cnc(N)c(OCc4c(Cl)cccc4Cl)c3)ccc2[nH]1 [Example I-76, 5-[6-Amino-5-(2,6-dichloro-benzyloxy)-pyridin-3-yl]-1H-indole-2-carboxylic acid ethyl ester] was tested. Which pIC50 did it give?
**A.** Its pIC50 is under 4.70.

**Q.** With Nc1ncc(-c2ccc3[nH]c(C(=O)O)cc3c2)cc1OCc1c(Cl)cccc1Cl [Example I-77, 5-[6-Amino-5-(2,6-dichloro-benzyloxy)-pyridin-3-yl]-1H-indole-2-carboxylic acid] as the compound, how does the pIC50 read?
**A.** The pIC50 was 5.79.

**Q.** How did the pIC50 turn out when CN1CCN(C(=O)c2cc3cc(-c4cnc(N)c(OCc5c(Cl)cccc5Cl)c4)ccc3[nH]2)CC1 [Example I-78] was run?
**A.** Its pIC50 is 6.74.

**Q.** How did the pIC50 turn out when CN(C)[C@@H]1CCN(C(=O)c2cc3cc(-c4cnc(N)c(OCc5c(Cl)cccc5Cl)c4)ccc3[nH]2)C1 [Example I-79, {5-[6-Amino-5-(2,6-dichloro-benzyloxy)-pyridin-3-yl]-1H-indol-2-yl}-[(3R)-3-dimethylamino-pyrrolidin-1-yl]-methanone] was run?
**A.** The pIC50 was 6.74.

**Q.** Nc1ncc(-c2ccc3[nH]c(C(=O)N4CCC[C@@H]4CN4CCCC4)cc3c2)cc1OCc1c(Cl)cccc1Cl [Example I-80, {5-[6-Amino-5-(2,6-dichloro-benzyloxy)-pyridin-3-yl]-1H-indol-2-yl}-[(2R)-2-pyrrolidin-1-ylmethyl-pyrrolidin-1-yl]-methanone] was tested. Which pIC50 did it give?
**A.** The pIC50 was 7.10.

**Q.** How did the pIC50 turn out when Nc1ncc(-c2ccc3[nH]c(C(=O)NCCN4CCCC4)cc3c2)cc1OCc1c(Cl)cccc1Cl [Example I-81, 5-[6-Amino-5-(2,6-dichloro-benzyloxy)-pyridin-3-yl]-1H-indole-2-carboxylic acid (2-pyrrolidin-1-yl-ethyl)-amide] was run?
**A.** Its pIC50 is 5.92.

**Q.** Nc1ncc(-c2ccc3[nH]c(C(=O)NCCN4CCOCC4)cc3c2)cc1OCc1c(Cl)cccc1Cl [Example I-82, 5-[6-Amino-5-(2,6-dichloro-benzyloxy)-pyridin-3-yl]-1H-indole-2-carboxylic acid (2-morpholin-4-yl-ethyl)-amide] was tested. Which pIC50 did it give?
**A.** Its pIC50 is 5.74.

**Q.** CC(C)(C)OC(=O)N[C@H]1CCN(C(=O)c2cc3cc(-c4cnc(N)c(OCc5c(Cl)cccc5Cl)c4)ccc3[nH]2)C1 [Example I-83, (1-{5-[6-Amino-5-(2,6-dichloro-benzyloxy)-pyridin-3-yl]-1H-indole-2-carbonyl}-- (3S)-pyrrlidin-3-yl)-carbamic acid tert-butyl ester] was tested. Which pIC50 did it give?
**A.** The pIC50 was 5.30.

**Q.** Nc1ncc(-c2ccc3[nH]c(C(=O)N4CC[C@H](N)C4)cc3c2)cc1OCc1c(Cl)cccc1Cl [Example I-84, {5-(6-Amino-5-(2,6-dichloro-benzyloxy)-pyridin-3-yl]-1H-indol-2-yl}-[(3S)-amino-pyrrolidin-1-yl]-methanone] was tested. Which pIC50 did it give?
**A.** Its pIC50 is 6.85.

**Q.** With Nc1ncc(-c2ccc3[nH]c(C(=O)NCC(O)CN4CCCC4)cc3c2)cc1OCc1c(Cl)cccc1Cl (stereo not shown) [Example I-85, 5-[6-Amino-5-(2,6-dichloro-benzyloxy)-pyridin-3-yl]-1H-indole-2-carboxylic acid (2-hydroxy-3-pyrrolidin-1-yl-propyl)-amide] as the compound, how does the pIC50 read?
**A.** The pIC50 was 6.15.

**Q.** Nc1ncc(-c2ccc(O)cc2)cc1OCc1ccccc1 [Example I-86, 4-(6-Amino-5-benzyloxy-pyridin-3-yl)-phenol] was tested. Which pIC50 did it give?
**A.** Its pIC50 is 5.06.

**Q.** With Nc1ncc(-c2ccccc2)cc1OCc1ccc(F)cc1Cl [Example I-89, 3-(2-Chloro-4-fluoro-benzyloxy)-5-phenyl-pyridin-2-ylamine] as the compound, how does the pIC50 read?
**A.** The pIC50 was 4.77.

**Q.** Nc1ncc(-c2ccccc2)cc1OCc1cc(C(F)(F)F)ccc1Cl [Example I-92, 3-(2-Chloro-5-trifluoromethyl-benzyloxy)-5-phenyl-pyridin-2-ylamine] was tested. Which pIC50 did it give?
**A.** Its pIC50 is under 4.70.

**Q.** How did the pIC50 turn out when Nc1ncc(-c2ccccc2)cc1OCc1cc(F)c(Cl)cc1Cl [Example I-93, 3-(2,4-Dichloro-5-fluoro-benzyloxy)-5-phenyl-pyridin-2-ylamine] was run?
**A.** Its pIC50 is under 4.70.

**Q.** How did the pIC50 turn out when Nc1ncc(-c2ccccc2)cc1OCc1cccc(C(F)(F)F)c1Cl [Example I-94, 3-(2-Chloro-3-trifluoromethyl-benzyloxy)-5-phenyl-pyridin-2-ylamine] was run?
**A.** The pIC50 was under 4.70.

**Q.** How did the pIC50 turn out when Nc1ncc(-c2ccccc2)cc1OCc1c(F)ccc(F)c1Cl [Example I-95, 3-(2 Chloro-3,6-difluoro-benzyloxy)-5-phenyl-pyridin-2-ylamine] was run?
**A.** Its pIC50 is 6.19.

**Q.** How did the pIC50 turn out when Nc1ncc(-c2ccccc2)cc1OCc1ccc(Cl)c(Cl)c1 [Example I-96, 3-(3,4-Dichloro-benzyloxy)-5-phenyl-pyridin-2-ylamine] was run?
**A.** The pIC50 was 4.79.

**Q.** With Cc1ccc(F)c(COc2cc(-c3ccccc3)cnc2N)c1Cl [Example I-98, 3-(2-Chloro-6-fluoro-3-methyl-benzyloxy)-5-phenyl-pyridin-2-ylamine] as the compound, how does the pIC50 read?
**A.** The pIC50 was 5.12.

**Q.** Nc1ncc(-c2ccccc2)cc1OCc1c(F)ccc(F)c1F [Example I-99, 5-Phenyl-3-(2,3,6-trifluoro-benzyloxy)-pyridin-2-ylamine] was tested. Which pIC50 did it give?
**A.** The pIC50 was 5.41.

**Q.** Nc1ncc(-c2ccccc2)cc1OCc1c(F)cccc1F [Example I-100, 3-(2,6-Difluoro-benzyloxy)-5-phenyl-pyridin-2-ylamine] was tested. Which pIC50 did it give?
**A.** Its pIC50 is 5.03.

**Q.** How did the pIC50 turn out when Cc1ccc(F)c(COc2cc(-c3ccccc3)cnc2N)c1F [Example I-101, 3-(2,6-Difluoro-3-methyl-benzyloxy)-5-phenyl-pyridin-2-ylamine] was run?
**A.** The pIC50 was 4.92.

**Q.** Nc1ncc(-c2ccccc2)cc1OCc1c(F)ccc(Cl)c1F [Example I-102, 3-(3-Chloro-2,6-difluoro-benzyloxy)-5-phenyl-pyridin-2-ylamine] was tested. Which pIC50 did it give?
**A.** Its pIC50 is 5.02.

**Q.** Nc1ncc(-c2ccccc2)cc1OCc1c(F)cccc1Cl [Example I-103, 3-(2-Chloro-8-fluoro-benzyloxy)-5-phenyl-pyridin-2-ylamine] was tested. Which pIC50 did it give?
**A.** The pIC50 was 5.10.

**Q.** How did the pIC50 turn out when COc1ccc(COc2cc(-c3ccccc3)cnc2N)cc1F [Example I-104, 3-(3-Fluoro-4-methoxy-benzyloxy)-5-phenyl-pyridin-2-ylamine] was run?
**A.** The pIC50 was 4.82.

**Q.** With CS(=O)(=O)Nc1cccc(COc2cc(-c3ccccc3)cnc2N)c1 [Example I-105, N-[3-(2-Amino-5-phenyl-pyridin-3-yloxymethyl)-phenyl]-methanesulfonamide] as the compound, how does the pIC50 read?
**A.** Its pIC50 is under 4.70.

**Q.** With Nc1ncc(-c2ccc(OCCN3CCOCC3)cc2)cc1OCc1cccc([N+](=O)[O-])c1 [Example I-106, 5-[4-(2-morpholin-4-yl-ethoxy)-phenyl]-3-(3-nitro-benzyloxy)-pyridin-2-ylamine] as the compound, how does the pIC50 read?
**A.** The pIC50 was 4.90.

**Q.** Nc1ncc(-c2ccc(OCCN3CCOCC3)cc2)cc1OCc1cccc2ccccc12 [Example I-107, 5-[4-(2-Morpholin-4-yl-ethoxy)-phenyl]-3-(naphthalen-1-ylmethoxy)-pyridin-2-ylamine] was tested. Which pIC50 did it give?
**A.** Its pIC50 is 5.11.

**Q.** With Nc1ncc(-c2ccc(OCCN3CCOCC3)cc2)cc1OCc1c(F)ccc(F)c1Cl [Example I-108, 3-(2-Chloro-3,6-difluoro-benzyloxy)-5-[4-(2-morpholin-4-yl-ethoxy)-phenyl]-pyridin-2-ylamine] as the compound, how does the pIC50 read?
**A.** The pIC50 was 6.68.

**Q.** How did the pIC50 turn out when CC(C)c1ccc(NC(=O)C(Oc2cc(-c3ccc(OCCN4CCOCC4)cc3)cnc2N)c2ccccc2)cc1 (stereo not shown) [Example I-109, 2-{2-Amino-5-[4-(2-morpholin-4-yl-ethoxy)-phenyl]-pyridin-3-yloxy}-N-(4-isopropyl-phenyl)-2-phenyl-acetamide] was run?
**A.** The pIC50 was under 4.70.

**Q.** Nc1ncc(-c2ccc(OCCN3CCOCC3)cc2)cc1OCc1csc2ccc(Cl)cc12 [Example I-110, 3-(5-Chloro-benzo[b]thiophen-3-ylmethoxy)-5-[4-(2-morpholin-4-yl-ethoxy)-phenyl]-pyridin-2-ylamine] was tested. Which pIC50 did it give?
**A.** Its pIC50 is 5.62.

**Q.** With Nc1ncc(-c2ccc(C(=O)N3CCC[C@@H]3CN3CCCC3)cc2)cc1OCc1ccc(F)cc1C(F)(F)F [Example I-111, {4-[6-amino-5-(4-fluoro-2-trifluoromethyl-benzyloxy)-pyridin-3-yl]-phenyl)[(2R)-2-pyrrolidin-1-ylmethyl-pyrrolidin-1-yl]-methanone] as the compound, how does the pIC50 read?
**A.** The pIC50 was 5.82.

**Q.** How did the pIC50 turn out when Nc1ncc(-c2ccc(C(=O)N3CCC[C@@H]3CN3CCCC3)cc2)cc1OCc1c(F)cccc1C(F)(F)F [Example I-112, {4-[6-Amino-5-(2-fluoro-2-trifluoromethyl-benzyloxy)-pyridin-3-yl]-phenyl}-[(2R)-2-pyrrolidin-1-ylmethyl-pyrrolidin-1-yl]-methanone] was run?
**A.** Its pIC50 is 6.82.

same assay, conditions: read-out: Met inhibition (printed in the Met IC50 column)

**Q.** How did the inhibition at 20 µM turn out when Nc1ncc(-c2ccccc2)cc1OCc1ccccc1Cl [Example I-90, 3-(2-Chloro-benzyloxy)-5-phenyl-pyridin-2-ylamine] was run?
**A.** Its inhibition at 20 µM is 48%.

**Q.** How did the inhibition at 20 µM turn out when Nc1ncc(-c2ccccc2)cc1OCc1cc(Cl)ccc1Cl [Example I-91, 3-(2,5-Dichloro-benzyloxy)-5-phenyl-pyridin-2-ylamine] was run?
**A.** The inhibition at 20 µM was 48%.
